Source: publication PMC9139161, “Phenolics from Chrozophora oblongifolia Aerial Parts as Inhibitors of α-Glucosidases and Advanced Glycation End Products: In-Vitro Assessment, Molecular Docking and Dynamics Studies” (Biology, 2022)
pIC50: −log10 of the molar value. Several values for one entry are separate records, joined by “and”; a condition that tells them apart may be missing. Identical values can stand only once.

Experiments:
[1] = system: advanced glycation end products (AGEs) formation, BSA-fructose model; assay: AGEs formation inhibition, BSA-fructose assay; format: biochemical; conditions: AGEs fluorescence, 72 h, 37 °C; read-out: BSA-Fructose Model IC50 (Mean ± SE)
Method: (§1) The isolated compounds were prepared at final concentrations of 500 µM in DMSO in the BSA-fructose assay, and 1000 µM in all other AGEs assays. Compounds that exceeded 50% inhibition at this concentration were serially diluted to determine their IC50. All tests were conducted using quercetin (positive control).
According to the previous report, the inhibition test for AGE formation was assessed using the BSA-fructose model. Briefly, BSA (50 mg/mL) and fructose (1.25 M) (in 200 mM phosphate buffer, pH 7.4, with 0.02% sodium azide) were incubated with Sample/blank in the dark for 72 h at 37 °C, (1:1:1 by volume). On a microplate reader (Fluostar Omega BMG Labtech, Ortenberg, Germany), fluorescent AGEs were detected using excitation and emission wavelengths of 355 nm and 460 nm, respectively. Triplicates of all experiments were performed, and the percentage of AGEs inhibition was calculated.

[2] = system: advanced glycation end products (AGEs) formation, arginine-methylglyoxal model; assay: AGEs formation inhibition, arginine-methylglyoxal assay; format: biochemical; conditions: AGEs fluorescence, 72 h, 37 °C; read-out: Arginine-Methylglyoxal Model IC50 (Mean ± SE)
Method: as §1
The determination of the inhibitory effect of the isolated compounds on the formation of AGEs in the arginine methylglyoxal model was used as described previously with slight modification. Briefly, in black 96-microwell plates, a sample was incubated for 72 h at 37 °C in the dark with methylglyoxal (53.3 mM, in distilled water) and 106.6 mM arginine (in 200 mM phosphate buffer, pH 7.4, with 0.02% sodium azide), (1:1:1 v/v/v). On a microplate reader (Fluostar Omega/BMG Labtech/Germany), fluorescent AGEs were detected using excitation and emission wavelengths of 355 nm and 460 nm, respectively. Triplicates of all experiments were performed.

DPPH assay = conditions: read-out: DPPH assay IC50 (Mean ± SE)
Method: Isolated compounds were prepared in final concentrations of 1000 µM in DMSO. Compounds that exceeded 50% inhibition at this concentration were serially diluted to determine their IC50. Ascorbic acid was used as a positive control, prepared in a concentration of 100 µM in water from which six concentrations were prepared to calculate its IC50. The method is based on the reduction of free radical of 2,2-diphenyl-1-picrylhydrazyl (DPPH). Briefly, in a 96-well plate, 20 μL of the isolated compound was incubated for 20 min in the absence of light with 180 μL of DPPH reagent (100 μM). The reduction of intensity in the color of DPPH was assessed on a microplate reader (TECAN, Männedorf, Switzerland) at 540 nm (Supplementary Table S2).

ABTS assay = conditions: ascorbic acid equivalents; mean ± SD, n = 3
Method: DMSO was used for the preparation of 0.5 mg/mL concentrations of isolated compounds, meanwhile, the positive control (ascorbic acid) was used to prepare a stock solution of 1000 µM in water; from which seven concentrations were prepared including 7.812, 15.625, 31.25, 62.5, 125, 250 and 500 µM to construct the concentration-response curve (Supplementary Data Figure S2). The activity of the tested compounds to scavenge the free radicals of ABTS (2,2′-azino-bis (3-ethylbenzothiazoline-6-sulfonic acid)) was assessed according to the methodology reported previously with slight modifications.
Five milliliters of aqueous solution (7 mM) of ABTS was mixed with 88 µL potassium persulfate (140 mM) and the mixture was kept in the dark for 16 h to produce ABTS radical cation (ABTS^•+). Then methanol was added to the reaction mixture to dilute the formed ABTS^•+ solution to an absorbance of 0.700 (1:50) at 690 nm.
Ten microliters of the tested compound were incubated with 190 μL of ABTS^•+ solution in a 96-well plate for thirty minutes in the dark and the absorbance was measured later using a microplate reader (TECAN, Männedorf, Switzerland) at 690 nm. Data are represented as means (n = 3) ± SD and the antioxidant effect of the tested compounds was calculated as µM Ascorbic acid equivalents by substitution in the linear regression equation (Supplementary Figure S2).

[3] = Metal chelation assay (ferrozine); conditions: EDTA equivalents; mean ± SD
Method: Isolated compounds were dissolved in DMSO to prepare a concentration of 0.5 mg/mL, meanwhile, the positive control (EDTA) was used to prepare a stock solution of 100 µM in water; from which six concentrations were prepared including 5, 10, 20, 40, 50 and 80 µM to construct the dose-response curve. The assay was carried out as previously reported, with minor modifications. Briefly, in 96 wells plate (n = 6) 20 µL of the freshly prepared ferrous sulfate (0.3 mM) was mixed with 50 µL of the tested compound and incubated with 30 µL of ferrozine (0.8 mM) for 10 min at room temperature. Finally, reduction in color intensity was assessed at 540 nm using a microplate reader (Tecan, San Jose, CA, USA). Data are represented as means (n = 3) ± SD and the antioxidant effect of the extracts was calculated as µM EDTA equivalents by substitution in the linear regression equation (Supplementary Figure S4).

[4] = Oxygen radical absorbance capacity (ORAC) assay; conditions: Trolox equivalents
Method: Isolated compounds were dissolved in DMSO to prepare a concentration of 0.25 mg/mL, meanwhile, the positive control (Trolox) was used to prepare a stock solution of 1 mM in MeOH; from which nine concentrations were prepared including 400, 300, 200, 150, 100, 75, 50, 25, and 12.5 µM to construct the dose-response curve. The assay was carried out as previously reported, with minor modifications. Briefly, 12.5 µL of the prepared sample(s) were incubated with 75 µL fluoresceine (10 nM) for 30 min at 37 °C. Measuring fluorescence was performed (520 EM, 485 EX, nm) for 3 cycles (90 s cycle time) for background measurement (Supplementary Figure S5). Subsequently, to each well, freshly-made AAPH (2,2′-azobis(2-amidinopropane) dihydrochloride) (12.5 µL, 240 mM) was immediately added. Measuring fluorescence (520 EM, 485 EX, nm) was maintained (90 s × 85 cycles) for 2.5 h (Supplementary Figure S5). The antioxidant potential (µM trolox equivalents) was estimated by substituting in the linear-regression equation.

SMILES	pIC50 [1]	pIC50 [2]	pIC50 (DPPH assay)	ABTS (ABTS assay) [mM AAE/mg]	Metal chelation [3]	ORAC assay [4]
O=c1cc(-c2ccc(O)cc2)oc2cc(O[C@@H]3O[C@H](CO)[C@@H](O)[C@H](O)[C@H]3O)cc(O)c12 [Compound 1, apeginin-7-O-β-D-glucoside]	3.52	3.32	3.44	0.702±0.050	19.26±1.52 µM EDTA eq/mg and 19.26 µM EDTA eq/mg	1.092±0.067 mM TE/mg and 1.09 mM TE/mg
C[C@@H]1O[C@@H](OC[C@H]2O[C@@H](Oc3c(-c4ccc(O)c(O)c4)oc4cc(O)cc(O)c4c3=O)[C@H](O)[C@@H](O)[C@@H]2O)[C@H](O)[C@H](O)[C@H]1O [Compound 4, rutin]	4.43	3.52	4.72	1.972±0.059	28.96±2.07 µM EDTA eq/mg and 28.96 µM EDTA eq/mg	2.164±0.096 mM TE/mg and 2.16 mM TE/mg

More lines, main results first:

pIC50 [1]	pIC50 [2]	pIC50 (DPPH assay)	SMILES	ABTS (ABTS assay) [mM AAE/mg]	Metal chelation [3]	ORAC assay [4]
4.46	3.65	5.40	O=C(OC[C@H]1O[C@H](OC(=O)c2cc(O)c(O)c(O)c2)[C@H](O)[C@@H](OC(=O)c2cc(O)c(O)c(O)c2)[C@@H]1O)c1cc(O)c(O)c(O)c1 (stereo in doubt) [Compound 5, 1,3,6-trigalloyl glucose]	9.640±0.061	17.52±2.43 µM EDTA eq/mg and 17.52 µM EDTA eq/mg	1.119±0.116 mM TE/mg and 1.11 mM TE/mg
3.30	< 2.92	3.91	O=C(O)[C@H]1O[C@@H](Oc2c(-c3ccc(O)c(O)c3)oc3cc(O)cc(O)c3c2=O)[C@H](O)[C@@H](O)[C@H]1O [Compound 3, quercetin-3-O-β-D-galacturonic acid]	0.210 ±0.012	28.26±0.78 µM EDTA eq/mg and 28.26 µM EDTA eq/mg	0.538±0.015 mM TE/mg and 0.54 mM TE/mg
3.58	2.94	4.54	O=C(O)[C@H]1O[C@@H](Oc2c(-c3ccc(O)c(O)c3)oc3cc(O)cc(O)c3c2=O)[C@H](O)[C@@H](O)[C@@H]1O [Compound 2, quercetin-3-O-β-D-glucuronic acid]	0.646 ±0.072	8.29±0.05 µM EDTA eq/mg and 8.29 µM EDTA eq/mg	0.739±0.098 mM TE/mg and 0.74 mM TE/mg
